Experimental data from PubChem BioAssay (NCI).
Where “and” joins values, the source holds several entries; their conditions need not be identical. Equal values may be shown once.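 Briefly, cells in 96-well plates were exposed to five compound concentrations for 48 h, and endpoints were estimated by linear interpolation. GI50 marks 50% less growth. TGI is the concentration that stops growth completely.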

Assays:
Test in all cases: NCI-60 cell line screen, 48 h
[1] = tested on: EKVX NSCLC
[2] = tested on: BT-549 breast
[3] = tested on: SK-MEL-28 melanoma
[4] = tested on: KM12 colon
[5] = tested on: OVCAR-8 ovarian
[6] = tested on: DU-145 prostate
[7] = tested on: PC-3 prostate
[8] = tested on: MOLT-4 leukemia
[9] = tested on: TK-10 renal
[10] = tested on: CCRF-CEM leukemia

Row | SMILES | TGI [1] [µM] | TGI [2] [µM] | TGI [3] [µM] | TGI [4] | TGI [5] | TGI [6] [µM] | TGI [7] | TGI [8] [µM] | TGI [9] | TGI [10] [µM] | GI50 [1] [µM] | GI50 [3] [µM] | GI50 [4] [µM] | GI50 [5] [µM] | GI50 [8] [µM] | GI50 [9] [µM] | GI50 [10] [µM]
1 | COC(=O)NN(C(=O)OC)c1c(-c2ccccc2)nc(SC)n1N | > 100 | > 100 | > 100 | > 100 µM | > 100 µM | > 100 | > 100 µM | > 100 | > 100 µM | > 100 | – | – | – | – | – | – | –
2 | CCOC1CC(=O)c2c(Br)sc(Br)c21 (centres undefined) | 42.7 | 66.1 | 39.5 | 37.2 µM | 38.5 µM | 32.5 | 47.2 µM | 35.1 | 46.4 µM | 50.8 | – | – | – | – | – | – | –
3 | O=[N+]([O-])C(=C(N1CCCCC1)N1CCCCC1)/C(Cl)=C(\Cl)Br | 37.1 | > 100 | 41.4 | 54.5 µM | 35 µM | > 100 | 60.3 µM | 57.3 | 72 µM | 42.4 | – | – | – | – | – | – | –
4 | O=C(NC(Cc1c[nH]c2ccccc12)C(=O)O)/C(=C/c1ccccc1O)NC(=O)c1ccccc1 (centres undefined) | > 100 | 52.5 | > 100 | > 100 µM | 28.9 µM | > 100 | – | > 100 | > 100 µM | > 100 | – | – | – | – | – | – | –
5 | Cc1cn2c(/C=C3/C(=O)Nc4cccc(Cl)c43)c(Cl)nc2s1 | > 100 | > 100 | 36.5 | > 100 µM | > 100 µM | > 100 | > 100 µM | > 100 | 37.4 µM | 28 | – | – | – | – | – | – | –
6 | COc1ccc(CC(CO)NC(=O)OCc2ccccc2)cc1Oc1ccc(CC(CO)NC(=O)OCc2ccccc2)cc1 (centres undefined) | 19.1 | 32.3 | 54.9 | 26.9 µM | – | 46 | 27.1 µM | 34.5 | 41.5 µM | 66.6 | – | – | – | – | – | – | –
7 | O=C1CCC(=Nc2ccc(Cl)cc2)N1C(=O)COc1ccc(OCC(=O)N2C(=O)CSC2=Nc2ccc(Cl)cc2)cc1 | > 100 | > 100 | > 100 | > 100 µM | > 100 µM | > 100 | > 100 µM | – | > 100 µM | – | – | – | – | – | – | – | –
8 | Nn1c(CCCCCCCCc2nnc(COc3c(O)ccc4ccccc34)n2N)nnc1COc1c(O)ccc2ccccc12 | > 100 | > 100 | > 100 | > 100 µM | – | > 100 | > 100 µM | > 100 | > 100 µM | – | – | – | – | – | – | – | –
9 | CCCCOC(C)(C)/C=C/C(O)[C@](C)(O)[C@H]1[C@H](O)C[C@@]2(C)[C@@H]3CCc4c(cc(OC5OC(CO)C(O)C(O)C5O)c(O)c4C)C3(C)C(=O)C[C@]12C (some centres undefined) | > 100 | > 100 | > 100 | > 100 µM | > 100 µM | > 100 | > 100 µM | > 100 | > 100 µM | > 100 | – | – | – | – | – | – | –
10 | Cc1cc(C)c2c(=O)n(CN3CC4Nc5ccccc5C4C3)sc2n1 (centres undefined) | 88.5 | > 100 | 82.3 | > 100 µM | 52 µM | 40.9 | 50.6 µM | 95.3 | 35.8 µM | > 100 | – | – | – | – | – | – | –
11 | C=C1C(O)C2(O)OCC34C(CC5C(C)=CC(=O)C(O)C5(C)C23)OC(=O)C(OC(=O)C/C=C(\C)CCCCC)C14 (centres undefined) | – | – | – | 0.0201 µM and 0.019 µM and 0.0342 µM | 0.00565 µM and 0.0192 µM and 0.0188 µM | – | 0.0032 µM and 0.0141 µM | – | 0.0119 µM and 0.0865 µM | – | 0.0479 | < 0.001 | < 0.001 | < 0.001 | < 0.001 | 0.0239 | < 0.001
12 | OC[C@@H](O)[C@H]1NC[C@@H](O)[C@H]1O | > 100 | > 100 | > 100 | > 100 µM | > 100 µM | > 100 | > 100 µM | > 100 | > 100 µM | > 100 | – | – | – | – | – | – | –
13 | CC(=O)N/N=C1/NN(C(C)=O)C2(S1)C(=O)Nc1ccc(Br)cc12 (centres undefined) | > 100 | > 100 | > 100 | > 100 µM | > 100 µM | > 100 | > 100 µM | > 100 | > 100 µM | > 100 | – | – | – | – | – | – | –
14 | Cc1ccc(S(=O)(=O)Oc2cc(N)c3c(n2)CCC3)cc1 | > 100 | > 100 | > 100 | > 100 µM | > 100 µM | > 100 | > 100 µM | > 100 | > 100 µM | > 100 | – | – | – | – | – | – | –
15 | COP(=O)(O)/C=C/C(NC(=O)C(Cl)(Cl)Cl)c1ccccc1 (centres undefined) | > 100 | > 100 | > 100 | > 100 µM | > 100 µM | > 100 | > 100 µM | > 100 | > 100 µM | – | – | – | – | – | – | – | –
16 | CCC1=CCC23C(=O)C=CC(=O)C2(C1)C(=O)c1cccc(OC)c1C3=O (centres undefined) | 32.9 | – | 33.3 | 43.6 µM | 29.9 µM | 32.2 | 28.4 µM | 17.4 | 33.5 µM | 28.1 | – | – | – | – | – | – | –
17 | N#Cc1nc(-c2cc([N+](=O)[O-])cc([N+](=O)[O-])c2)oc1N | > 10 | > 10 | > 10 | > 10 µM | > 10 µM | > 10 | > 10 µM | > 10 | > 10 µM | > 10 | – | – | – | – | – | – | –
18 | Cc1cc2c(C)cc(=O)[nH]c2cc1N | > 100 | > 100 | > 100 | > 100 µM | > 100 µM | > 100 | > 100 µM | > 100 | – | > 100 | – | – | – | – | – | – | –
19 | C=C(Cl)/C(=C\Cl)CCC(Br)C(C)C (centres undefined) | > 100 | > 100 | > 100 | > 100 µM | – | > 100 | > 100 µM | > 100 | > 100 µM | > 100 | – | – | – | – | – | – | –
20 | NC(CSCc1ccccc1)C(=O)O (centres undefined) | > 100 | > 100 | > 100 | > 100 µM | > 100 µM | > 100 | > 100 µM | – | > 100 µM | > 100 | – | – | – | – | – | – | –
21 | COc1cc2c(cc1OC)C1c3ccccc3CCN1CC2 (centres undefined) | > 100 | – | > 100 | > 100 µM | > 100 µM | > 100 | > 100 µM | > 100 | > 100 µM | > 100 | – | – | – | – | – | – | –
